Assay: in-vitro release of risperidone from the in-situ hydrogel into PBS
Assay type: physicochemical
Conditions: agarose/urea in-situ hydrogel, Millicell insert in 7.5 ml PBS, HPLC, on the 28 day
Procedure: 800 μl of the stock solution was mixed with 200 μl of DI water containing dispersed risperidone (20 mg/ml). Then, 150 μl of the solution was added into 12-well Millicells and immersed the insert into 7.5 ml of PBS. The PBS solution was taken out at designated time point and replaced with fresh PBS. The concentration of risperidone was measured via HPLC. The release profile of risperidone from the in-situ hydrogel reached 86% on the 28 day (FIG. 2).

Cc1nc2n(c(=O)c1CCN1CCC(c3noc4cc(F)ccc34)CC1)CCCC2 [risperidone]
release of risperidone from the in-situ hydrogel: 86%

Reference: US9757330B2, “Recipe for in-situ gel, and implant, drug delivery system formed thereby” (INDUSTRIAL TECHNOLOGY RESEARCH INSTITUTE, priority 2013, dated 2017)
